Read-outs that look alike come from different tables or passages of the source.
What was measured:
Assay in all cases: biochemical
[1] = biological target: CaMKK2 (Homo sapiens, UniProt Q96RR4)
[2] = biological target: FGFR1 (Homo sapiens, UniProt P11362)
[3] = biological target: CLK1 (Homo sapiens, UniProt P49759)
[4] = biological target: CHK2 (Homo sapiens, UniProt O96017)
[5] = biological target: JNK3 (Homo sapiens, UniProt P53779)
[6] = biological target: T1, DRAK1 (Homo sapiens, UniProt Q9UEE5)
T1 sequence (Q9UEE5 1-414): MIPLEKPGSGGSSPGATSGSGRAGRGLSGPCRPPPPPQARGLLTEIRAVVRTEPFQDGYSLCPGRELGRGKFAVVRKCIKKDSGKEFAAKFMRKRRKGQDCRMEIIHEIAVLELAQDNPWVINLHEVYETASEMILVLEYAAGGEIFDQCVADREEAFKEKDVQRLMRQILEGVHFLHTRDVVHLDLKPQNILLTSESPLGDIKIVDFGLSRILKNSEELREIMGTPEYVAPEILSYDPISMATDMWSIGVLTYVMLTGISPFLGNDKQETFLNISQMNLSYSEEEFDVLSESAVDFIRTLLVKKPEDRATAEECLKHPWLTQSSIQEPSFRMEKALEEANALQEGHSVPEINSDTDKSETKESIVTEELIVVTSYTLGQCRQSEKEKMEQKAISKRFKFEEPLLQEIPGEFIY

[7] = biological target: DAPK3 (Homo sapiens, UniProt O43293)
Chain of DAPK3 (O43293 whole entry): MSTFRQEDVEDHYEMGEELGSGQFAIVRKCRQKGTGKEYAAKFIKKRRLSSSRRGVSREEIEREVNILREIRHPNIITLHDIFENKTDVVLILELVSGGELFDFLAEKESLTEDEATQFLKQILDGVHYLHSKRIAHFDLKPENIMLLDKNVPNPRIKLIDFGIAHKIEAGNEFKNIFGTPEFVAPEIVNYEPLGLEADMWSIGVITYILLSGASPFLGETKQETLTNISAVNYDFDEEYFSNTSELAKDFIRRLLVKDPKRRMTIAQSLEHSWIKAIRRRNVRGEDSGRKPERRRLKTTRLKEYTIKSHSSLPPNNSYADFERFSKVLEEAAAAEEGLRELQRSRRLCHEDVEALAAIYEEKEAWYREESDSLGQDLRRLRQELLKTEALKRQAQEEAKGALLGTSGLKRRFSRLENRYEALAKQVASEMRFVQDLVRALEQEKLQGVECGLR

[8] = biological target: GPRK5 (Homo sapiens, UniProt P34947)
Chain of GPRK5 (P34947 whole entry): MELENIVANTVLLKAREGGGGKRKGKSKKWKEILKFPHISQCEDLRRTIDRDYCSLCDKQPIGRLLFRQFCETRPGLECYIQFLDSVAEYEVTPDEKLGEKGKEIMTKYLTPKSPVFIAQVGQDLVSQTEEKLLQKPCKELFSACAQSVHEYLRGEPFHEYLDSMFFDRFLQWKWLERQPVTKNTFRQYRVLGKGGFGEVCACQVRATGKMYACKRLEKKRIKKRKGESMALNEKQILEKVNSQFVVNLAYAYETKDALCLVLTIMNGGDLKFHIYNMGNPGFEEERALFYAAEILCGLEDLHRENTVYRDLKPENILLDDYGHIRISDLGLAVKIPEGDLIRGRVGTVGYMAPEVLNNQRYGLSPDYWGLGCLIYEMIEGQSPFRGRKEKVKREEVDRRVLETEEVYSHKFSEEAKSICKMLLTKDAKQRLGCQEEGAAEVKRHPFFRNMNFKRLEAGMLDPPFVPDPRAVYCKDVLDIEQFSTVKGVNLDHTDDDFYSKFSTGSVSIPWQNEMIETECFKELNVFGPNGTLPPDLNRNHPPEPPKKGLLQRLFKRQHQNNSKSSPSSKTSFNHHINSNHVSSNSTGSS

[9] = biological target: T2, MAP3K5 (Homo sapiens, UniProt Q99683)
T2 sequence (Q99683 1-1374): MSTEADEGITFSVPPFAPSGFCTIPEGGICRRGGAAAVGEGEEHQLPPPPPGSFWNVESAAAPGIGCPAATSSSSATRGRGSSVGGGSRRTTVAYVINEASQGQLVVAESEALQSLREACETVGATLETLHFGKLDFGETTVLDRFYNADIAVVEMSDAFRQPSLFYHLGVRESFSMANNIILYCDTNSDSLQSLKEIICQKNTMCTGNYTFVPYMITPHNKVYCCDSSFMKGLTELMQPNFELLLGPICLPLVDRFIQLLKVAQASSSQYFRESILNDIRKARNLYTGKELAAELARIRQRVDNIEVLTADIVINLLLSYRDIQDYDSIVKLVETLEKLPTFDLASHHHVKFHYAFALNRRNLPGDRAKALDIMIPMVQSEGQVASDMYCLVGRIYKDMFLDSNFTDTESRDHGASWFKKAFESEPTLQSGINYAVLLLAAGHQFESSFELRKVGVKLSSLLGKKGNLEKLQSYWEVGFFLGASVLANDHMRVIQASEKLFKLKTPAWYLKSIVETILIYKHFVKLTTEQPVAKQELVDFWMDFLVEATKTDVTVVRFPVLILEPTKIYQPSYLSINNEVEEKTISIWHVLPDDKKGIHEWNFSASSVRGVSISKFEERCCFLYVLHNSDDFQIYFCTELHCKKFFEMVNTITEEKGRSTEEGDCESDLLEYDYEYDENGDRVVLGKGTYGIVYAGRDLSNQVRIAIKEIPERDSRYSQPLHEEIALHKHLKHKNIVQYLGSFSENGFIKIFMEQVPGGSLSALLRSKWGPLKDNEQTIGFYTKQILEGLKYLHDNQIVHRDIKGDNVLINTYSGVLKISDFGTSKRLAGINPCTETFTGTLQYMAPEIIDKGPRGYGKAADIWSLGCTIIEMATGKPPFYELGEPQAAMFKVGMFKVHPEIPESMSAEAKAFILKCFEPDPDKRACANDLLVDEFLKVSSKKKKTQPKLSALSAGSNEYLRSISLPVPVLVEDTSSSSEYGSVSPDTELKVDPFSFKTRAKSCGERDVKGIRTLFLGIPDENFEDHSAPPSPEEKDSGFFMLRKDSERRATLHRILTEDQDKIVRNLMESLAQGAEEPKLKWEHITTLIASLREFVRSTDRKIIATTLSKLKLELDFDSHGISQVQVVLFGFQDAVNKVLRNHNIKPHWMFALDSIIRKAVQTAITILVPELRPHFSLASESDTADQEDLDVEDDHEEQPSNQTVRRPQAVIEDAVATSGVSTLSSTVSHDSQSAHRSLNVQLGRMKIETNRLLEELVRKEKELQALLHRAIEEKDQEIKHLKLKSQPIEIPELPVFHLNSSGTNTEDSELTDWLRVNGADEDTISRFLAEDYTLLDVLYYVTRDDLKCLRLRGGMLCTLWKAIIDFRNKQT

Chain of CaMKK2 (Q96RR4 whole entry): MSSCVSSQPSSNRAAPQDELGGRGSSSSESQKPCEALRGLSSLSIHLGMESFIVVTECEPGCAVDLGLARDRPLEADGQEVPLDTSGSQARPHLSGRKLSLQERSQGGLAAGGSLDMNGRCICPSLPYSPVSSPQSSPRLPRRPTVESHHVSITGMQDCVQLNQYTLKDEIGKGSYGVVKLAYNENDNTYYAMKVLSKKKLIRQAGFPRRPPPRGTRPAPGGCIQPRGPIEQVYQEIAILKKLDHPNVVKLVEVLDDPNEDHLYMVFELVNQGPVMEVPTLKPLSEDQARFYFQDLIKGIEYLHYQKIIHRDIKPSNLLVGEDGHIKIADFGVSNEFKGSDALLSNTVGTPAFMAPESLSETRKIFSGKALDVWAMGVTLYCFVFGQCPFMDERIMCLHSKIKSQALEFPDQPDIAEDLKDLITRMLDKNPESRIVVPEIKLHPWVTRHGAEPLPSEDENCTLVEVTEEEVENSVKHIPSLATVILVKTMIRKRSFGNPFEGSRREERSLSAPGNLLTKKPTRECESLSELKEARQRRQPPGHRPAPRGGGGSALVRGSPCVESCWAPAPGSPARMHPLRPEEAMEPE
Chain of JNK3 (P53779 whole entry): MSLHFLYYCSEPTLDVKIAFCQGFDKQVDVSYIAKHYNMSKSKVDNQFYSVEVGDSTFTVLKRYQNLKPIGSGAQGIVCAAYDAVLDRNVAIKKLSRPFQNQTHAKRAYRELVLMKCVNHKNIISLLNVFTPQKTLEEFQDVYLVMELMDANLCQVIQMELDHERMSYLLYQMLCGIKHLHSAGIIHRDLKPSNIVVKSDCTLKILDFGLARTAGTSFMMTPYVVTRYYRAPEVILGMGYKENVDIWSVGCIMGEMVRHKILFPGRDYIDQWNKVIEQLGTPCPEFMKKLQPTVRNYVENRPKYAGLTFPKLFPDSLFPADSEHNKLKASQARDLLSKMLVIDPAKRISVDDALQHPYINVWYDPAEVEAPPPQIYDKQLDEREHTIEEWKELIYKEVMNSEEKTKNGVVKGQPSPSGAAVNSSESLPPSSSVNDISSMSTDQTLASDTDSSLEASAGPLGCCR
Chain of FGFR1 (P11362 whole entry): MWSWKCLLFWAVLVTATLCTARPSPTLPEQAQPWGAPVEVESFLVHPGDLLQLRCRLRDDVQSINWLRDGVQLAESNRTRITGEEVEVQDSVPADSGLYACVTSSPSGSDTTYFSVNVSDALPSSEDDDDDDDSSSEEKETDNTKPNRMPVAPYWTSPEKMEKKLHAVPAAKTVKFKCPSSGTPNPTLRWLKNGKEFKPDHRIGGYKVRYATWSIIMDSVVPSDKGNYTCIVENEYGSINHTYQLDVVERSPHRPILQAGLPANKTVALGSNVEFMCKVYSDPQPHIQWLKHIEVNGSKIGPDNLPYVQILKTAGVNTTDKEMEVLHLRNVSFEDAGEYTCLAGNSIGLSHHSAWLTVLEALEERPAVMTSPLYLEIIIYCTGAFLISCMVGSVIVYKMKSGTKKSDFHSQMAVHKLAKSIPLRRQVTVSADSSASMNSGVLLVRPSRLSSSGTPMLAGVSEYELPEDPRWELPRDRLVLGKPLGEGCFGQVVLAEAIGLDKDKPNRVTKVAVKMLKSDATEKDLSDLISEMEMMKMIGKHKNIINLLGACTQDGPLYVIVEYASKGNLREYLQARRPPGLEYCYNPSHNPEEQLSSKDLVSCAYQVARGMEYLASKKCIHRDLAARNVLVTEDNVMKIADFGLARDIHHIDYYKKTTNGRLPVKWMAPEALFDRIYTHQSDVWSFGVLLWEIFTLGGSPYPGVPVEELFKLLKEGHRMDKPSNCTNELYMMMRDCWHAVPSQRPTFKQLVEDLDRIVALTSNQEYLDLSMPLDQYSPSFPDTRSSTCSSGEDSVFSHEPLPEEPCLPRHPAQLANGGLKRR
Chain of CHK2 (O96017 whole entry): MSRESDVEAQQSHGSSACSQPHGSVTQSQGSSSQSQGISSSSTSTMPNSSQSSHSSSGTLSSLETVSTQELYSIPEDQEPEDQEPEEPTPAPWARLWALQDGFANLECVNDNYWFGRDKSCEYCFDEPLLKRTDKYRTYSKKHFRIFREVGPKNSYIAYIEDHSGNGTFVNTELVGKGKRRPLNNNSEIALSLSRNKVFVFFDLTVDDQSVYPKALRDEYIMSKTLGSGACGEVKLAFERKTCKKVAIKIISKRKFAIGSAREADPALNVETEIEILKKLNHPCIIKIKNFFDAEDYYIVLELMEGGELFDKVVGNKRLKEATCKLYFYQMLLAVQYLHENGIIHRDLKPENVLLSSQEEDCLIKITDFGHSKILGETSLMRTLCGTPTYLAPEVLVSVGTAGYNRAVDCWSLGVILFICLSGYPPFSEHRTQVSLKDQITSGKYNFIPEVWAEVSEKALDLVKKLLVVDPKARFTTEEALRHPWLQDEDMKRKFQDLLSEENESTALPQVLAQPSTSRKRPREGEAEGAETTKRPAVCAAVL
Chain of CLK1 (P49759 whole entry): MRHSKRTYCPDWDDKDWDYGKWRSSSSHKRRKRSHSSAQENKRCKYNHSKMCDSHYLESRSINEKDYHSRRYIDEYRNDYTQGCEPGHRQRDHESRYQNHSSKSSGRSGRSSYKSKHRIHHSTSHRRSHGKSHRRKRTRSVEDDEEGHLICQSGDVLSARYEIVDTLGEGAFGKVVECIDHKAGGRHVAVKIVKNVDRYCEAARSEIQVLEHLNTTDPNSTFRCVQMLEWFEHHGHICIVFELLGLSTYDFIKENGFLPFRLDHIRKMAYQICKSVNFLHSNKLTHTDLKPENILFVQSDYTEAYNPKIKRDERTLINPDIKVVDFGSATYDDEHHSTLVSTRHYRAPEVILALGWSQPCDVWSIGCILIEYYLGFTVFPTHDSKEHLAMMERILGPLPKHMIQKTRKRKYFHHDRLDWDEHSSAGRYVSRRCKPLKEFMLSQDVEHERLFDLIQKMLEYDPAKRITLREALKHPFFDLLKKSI

## CNc1ncc2cc(-c3cc(Cl)ccc3Cl)c(=O)n(CCCCN)c2n1 [compound 8, 8-(4-Aminobutyl)-6-(2,5-dichlorophenyl)-2-(methylamino)pyrido[2,3-d]pyrimidin-7(8H)-one]
[1]; read-out: dTm 8
  ΔTm at 10 µM: 0.6 °C
[2]; read-out: dTm 8
  ΔTm at 10 µM: 3.3 °C
[3]; read-out: dTm 8
  ΔTm at 10 µM: 0.6 °C
[4]; read-out: dTm 8
  ΔTm at 10 µM: 0.4 °C
[5]; read-out: dTm 8
  ΔTm at 10 µM: 0.8 °C
[6]; read-out: dTm 8
  ΔTm at 10 µM: 1.1 °C
[7]; read-out: dTm 8
  ΔTm at 10 µM: -0.1 °C
[8]; read-out: dTm 8
  ΔTm at 10 µM: 0.6 °C
[9]; read-out: dTm 8
  ΔTm at 10 µM: 1.5 °C

## CNc1ncc2cc(-c3cc(C(F)(F)F)ccc3Cl)c(=O)n(CCCCN)c2n1 [compound 9, 8-(4-Aminobutyl)-6-(2-chloro-5-(trifluoromethyl)phenyl)-2-(methylamino)pyrido[2,3-d]pyrimidin-7(8H)-one]
[1]; read-out: dTm 9
  ΔTm at 10 µM: 0.4 °C
[2]; read-out: dTm 9
  ΔTm at 10 µM: 1.2 °C
[3]; read-out: dTm 9
  ΔTm at 10 µM: 0.4 °C
[4]; read-out: dTm 9
  ΔTm at 10 µM: 0.5 °C
[5]; read-out: dTm 9
  ΔTm at 10 µM: 1.3 °C
[6]; read-out: dTm 9
  ΔTm at 10 µM: -1.1 °C
[7]; read-out: dTm 9
  ΔTm at 10 µM: -0.1 °C
[8]; read-out: dTm 9
  ΔTm at 10 µM: 0.3 °C
[9]; read-out: dTm 9
  ΔTm at 10 µM: 0.4 °C

## CNc1ncc2cc(-c3cc(Cl)ccc3Br)c(=O)n(CCCCN)c2n1 [compound 10, 8-(4-Aminobutyl)-6-(2-bromo-5-chlorophenyl)-2-(methylamino)pyrido[2,3-d]pyrimidin-7(8H)-one]
[1]; read-out: dTm 10
  ΔTm at 10 µM: 0.7 °C
[2]; read-out: dTm 10
  ΔTm at 10 µM: 2.9 °C
[3]; read-out: dTm 10
  ΔTm at 10 µM: 0.4 °C
[4]; read-out: dTm 10
  ΔTm at 10 µM: 0.2 °C
[5]; read-out: dTm 10
  ΔTm at 10 µM: 1.3 °C
[6]; read-out: dTm 10
  ΔTm at 10 µM: -0.8 °C
[7]; read-out: dTm 10
  ΔTm at 10 µM: 0.1 °C
[8]; read-out: dTm 10
  ΔTm at 10 µM: 0.6 °C
[9]; read-out: dTm 10
  ΔTm at 10 µM: 1.7 °C

## CNc1ncc2cc(-c3cc(Br)ccc3Br)c(=O)n(CCCCN)c2n1 [compound 11, 8-(4-Aminobutyl)-6-(2,5-dibromophenyl)-2-(methylamino)pyrido[2,3-d]pyrimidin-7(8H)-one]
[1]; read-out: dTm 11
  ΔTm at 10 µM: 0.6 °C
[2]; read-out: dTm 11
  ΔTm at 10 µM: 3 °C
[3]; read-out: dTm 11
  ΔTm at 10 µM: 0.4 °C
[4]; read-out: dTm 11
  ΔTm at 10 µM: 0.4 °C
[5]; read-out: dTm 11
  ΔTm at 10 µM: 1.1 °C
[6]; read-out: dTm 11
  ΔTm at 10 µM: -0.8 °C
[7]; read-out: dTm 11
  ΔTm at 10 µM: -0.2 °C
[8]; read-out: dTm 11
  ΔTm at 10 µM: 0.7 °C
[9]; read-out: dTm 11
  ΔTm at 10 µM: 1.6 °C

## CNc1ncc2cc(-c3cc(F)c(-c4cccc(C)n4)cc3F)c(=O)n(CCCCN)c2n1 [compound 12, 8-(4-Aminobutyl)-6-(2,5-difluoro-4-(6-methylpyridin-2-yl)phenyl)-2-(methylamino)pyrido[2,3-d]pyrimidin-7(8H)-one]
[1]; read-out: dTm 12
  ΔTm at 10 µM: 0 °C
[2]; read-out: dTm 12
  ΔTm at 10 µM: 0.6 °C
[3]; read-out: dTm 12
  ΔTm at 10 µM: -0.1 °C
[4]; read-out: dTm 12
  ΔTm at 10 µM: 3.3 °C
[5]; read-out: dTm 12
  ΔTm at 10 µM: 0.4 °C
[6]; read-out: dTm 12
  ΔTm at 10 µM: 0 °C
[7]; read-out: dTm 12
  ΔTm at 10 µM: 0.3 °C
[8]; read-out: dTm 12
  ΔTm at 10 µM: -0.4 °C
[9]; read-out: dTm 12
  ΔTm at 10 µM: 9.1 °C
